From PubChem BioAssay AID2744 (NMMLSC, 2010)
Calls of active or inactive are those of the source.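 How the source made its calls: active means fitted half-maximal concentration for changing reporter fluorescence at or below a set limit; inactive means the rest.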

Target: Citrate synthase, peroxisomal (Saccharomyces cerevisiae (strain ATCC 204508 / S288c)) (UniProt P08679)
Experiment: CIT2-GFP expression modulators in yeast, dose response, flow cytometry, MLPCN hits (AID 2744)
Settings: S. cerevisiae CIT2-GFP strain, 3 h; for GFP fluorescence, higher = induction: at 33 µM (top of the series); for EC50: flow cytometry fluorescence

Citrate synthase, peroxisomal (Saccharomyces cerevisiae (strain ATCC 204508 / S288c)), sequence (P08679 whole entry, looked up): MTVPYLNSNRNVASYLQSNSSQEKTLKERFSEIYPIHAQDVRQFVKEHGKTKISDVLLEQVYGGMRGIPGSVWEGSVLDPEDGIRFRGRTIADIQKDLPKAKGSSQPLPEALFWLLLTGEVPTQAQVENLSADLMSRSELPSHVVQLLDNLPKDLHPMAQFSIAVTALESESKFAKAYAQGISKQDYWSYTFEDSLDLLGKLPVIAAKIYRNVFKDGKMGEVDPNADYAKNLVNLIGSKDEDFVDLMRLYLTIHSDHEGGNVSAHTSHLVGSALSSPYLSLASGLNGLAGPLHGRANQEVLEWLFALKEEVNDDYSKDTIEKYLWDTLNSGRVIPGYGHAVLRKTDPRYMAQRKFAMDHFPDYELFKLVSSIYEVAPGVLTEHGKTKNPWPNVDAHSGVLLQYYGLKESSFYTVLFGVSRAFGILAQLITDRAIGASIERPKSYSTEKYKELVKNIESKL

Row | Compound | GFP fluorescence, higher = induction | EC50 [µM]
1 | CCC1(c2ccccc2)ON(c2c(Br)cccc2Br)C1=O (stereo not drawn) | inactive | –
2 | Oc1ccc(COCc2ccccc2)c2cccnc12 | inactive | –
3 | Cc1[nH]n(-c2ncc(-c3ccccc3)s2)c(=O)c1C(c1ccc(Cl)cc1)C(C#N)C#N (stereo not drawn) | inactive | –
4 | CC(OC(=O)c1ccco1)C(=O)Nc1nc(-c2ccccc2)cs1 (stereo not drawn) | inactive | –
5 | CCc1ccc(OCC(=O)NNC(=S)NC(=O)C2CC2)c(Br)c1 | inactive | –
6 | Cc1cc(C2CCCCC2)n(O)c(=O)c1 | inactive | –
7 | CC(c1ccccc1)N1C(=O)/C(=C/c2ccncc2)SC1=S (stereo not drawn) | inactive | –
8 | C[C@@H]1C[C@@H]([C@H](O)CC2CC(=O)NC(=O)C2)C(=O)[C@@H](C)C1 | inactive | –
9 | O=C1C(=O)c2ccccc2-c2ccccc21 | inactive | –
10 | O=C(Nc1nnc(-c2ccc(Cl)cc2)o1)c1ccccc1Br | inactive | –
11 | [O-][n+]1cccc2c(Br)cc(Br)c(O)c21 | inactive | –
12 | Cc1ccc(C(=O)O/N=C(\N)Cc2cccs2)c(Cl)c1 | inactive | –
13 | Cc1ccc(S(=O)(=O)/N=C(\Sc2ccccc2)c2ccccc2)cc1 | inactive | –
14 | O=C1Oc2ccccc2C(=O)/C1=C/c1ccccc1O | inactive | –
15 | O=[N+]([O-])c1cc(Cl)cc(/C=N\Nc2ccccn2)c1O | inactive | –
16 | COc1ccc(C(=O)NC(=S)NNC(=O)CCc2ccccc2)cc1 | inactive | –
17 | Cc1ccc(/C(N)=N/OC(=O)c2ccc(F)cc2)cc1 | – | 3.81
18 | CC(=O)[C@]1(O)Cc2c(O)c3c(c(O)c2[C@@H](O[C@H]2C[C@H](N)[C@H](O)[C@H](C)O2)C1)C(=O)c1ccccc1C3=O | inactive | –
19 | CCN1/C(=C/C(C)=C/c2sc3ccccc3[n+]2CC)Sc2ccccc21 | inactive | –
20 | O=C(OCC(=O)N1CCN(C(=O)c2ccco2)CC1)c1cc(-c2ccccc2)nc2ccccc12 | inactive | –
21 | CC(=O)Oc1cccc(N2C(=O)c3cccc4c([N+](=O)[O-])ccc(c34)C2=O)c1 | inactive | –
22 | Cn1ncc(S(=O)(=O)Cc2ccccc2)c(Cl)c1=O | inactive | –
23 | CN(C)NC(=S)Nc1ccc(S(=O)(=O)N2CCCCC2)cc1 | inactive | –
24 | Cc1cc(C)c(S(=O)(=O)ON2C(=O)c3ccccc3C2=O)cc1C | inactive | –

Row | Compound | GFP fluorescence, higher = induction | EC50 [µM]
25 | O=[N+]([O-])c1cc(F)c2cccnc2c1O | inactive | –
26 | O=C(/C=C/c1ccccn1)c1cc(Br)ccc1O | inactive | –
27 | Nc1ccccc1C#CC(=O)c1ccccc1 | inactive | –
28 | C=C1C(O)[C@@H]2O[C@]3(CC[C@H](/C=C/C(C)[C@@H]4CC(C)=CC5(O[C@H](C[C@@](C)(O)C(=O)O)CCC5O)O4)O3)CC[C@H]2O[C@@H]1C(O)CC(C)[C@H]1OC2(CCCCO2)CCC1C (stereo partly drawn) | inactive | –
29 | CN(C)c1ccc(N=Cc2nc(-c3ccccc3)oc2OC(=O)c2ccccc2)cc1 | inactive | –
30 | COc1ccc(CCNC2=C(Cl)C(=O)N(CCc3ccc(OC)c(OC)c3)C2=O)cc1OC | inactive | –
31 | CCOC(=O)CSC1=NC(=O)/C(=C/c2ccc(Br)cc2)S1 | inactive | –
32 | COc1cc(C=C2C(=O)c3ccccc3C2=O)cc(OC)c1OC | inactive | –
33 | CCN(CC(=O)Nc1cc(S(=O)(=O)N2CCOCC2)ccc1Cl)Cc1ccccc1 | inactive | –
34 | O=[N+]([O-])c1c(Nc2ccccn2)cc(Cl)c2nonc12 | inactive | –
35 | C=CCOc1cccc(C(=O)/C=C2/C(=O)Nc3ccccc32)c1 | inactive | –
36 | CCOc1ccc(NC2=C(Cl)C(=O)N(Cc3ccccc3)C2=O)cc1 | inactive | –
37 | Cc1ccc(NN2C(=O)C=C(c3ccc(Cl)cc3)C2=O)cc1 | inactive | –
38 | C[C@H]1C[C@@H](C)C(=O)[C@@H]([C@H](O)CC2CC(=O)NC(=O)C2)C1 | inactive | –
39 | O=C(c1ccccc1)c1ccccc1N1C(=O)C=CC1=O | inactive | –
40 | COc1ccccc1OCCCc1c(C)n[nH]c1C | inactive | –
41 | Oc1c(Br)cc(Br)cc1C=Nc1ccc2c(c1)OCO2 | inactive | –
42 | O=C1/C(=C\c2ccc(O)c(O)c2)SC(=S)N1Cc1ccccc1 | inactive | –
43 | O=C(/C=C/c1ccc(F)cc1)NC(=S)NNC(=O)c1cnccn1 | inactive | –
44 | CCc1ccc(C(=O)/C=C/c2ccc([N+](=O)[O-])o2)cc1 | inactive | –
45 | O=S(=O)(/N=C(/Sc1ccccc1)c1ccccc1)c1ccccc1 | inactive | –
46 | N/C(Cc1ccc(Cl)c(Cl)c1)=N\OC(=O)c1cccs1 | – | 10.3
47 | O=[N+]([O-])c1ccc(O)c2ncccc12 | inactive | –
48 | CC(C)(C)n1nc(-c2ccc(F)cc2)c2c(N)ncnc21 | inactive | –

Row | Compound | GFP fluorescence, higher = induction | EC50 [µM]
49 | Oc1c(I)cc(I)c2cccnc12 | inactive | –
50 | COc1cc(C=C2C(=O)c3ccccc3C2=O)cc(OC)c1 | inactive | –
51 | N#C/C(=C\c1cc(Br)ccc1F)C(=O)NC1CC1 | inactive | –
52 | CN(Cc1cnc2nc(N)nc(N)c2n1)c1ccc(C(=O)N[C@@H](CCC(=O)O)C(=O)O)cc1 | inactive | –
53 | Cc1c(Cc2ccccc2)c(NCCN(C)C)n2c(nc3ccccc32)c1C#N | inactive | –
54 | Cc1c(NC2=C(Cl)C(=O)N(c3ccccc3Cl)C2=O)c(=O)n(-c2ccccc2)n1C | inactive | –
55 | CCOc1ccc(N2C(=O)C(Cl)=C(Nc3ccccc3O)C2=O)cc1 | inactive | –
56 | O=C(Nc1nc(-c2ccccn2)cs1)c1cc2ccccc2o1 | inactive | –
57 | Oc1c(CN2CCN(c3ccc(F)cc3)CC2)cc(Cl)c2cccnc12 | inactive | –
58 | COc1cc(N=c2ssnc2Cl)c(OC)cc1Cl | inactive | –
59 | O=C(NC(=S)NNC(=O)[C@H]1C[C@@H]1c1ccccc1)c1cccc(F)c1 | inactive | –
60 | COc1ccc(N2CCN(C(=O)c3ccccc3)CC2)c([N+](=O)[O-])c1 | inactive | –
61 | Clc1cnc(N/N=C/c2cccs2)c(Cl)c1 | inactive | –
62 | N#Cc1cc([N+](=O)[O-])c(-n2nnc3ccccc32)c([N+](=O)[O-])c1 | inactive | –
63 | CCOC(=O)C(C(=O)OCC)C(C(=O)OCC)N1CCOCC1 (stereo not drawn) | inactive | –
64 | O=C(CCc1ccccc1)NNC(=S)NC(=O)c1ccccc1 | inactive | –
65 | COc1ccc(NC(=O)/C(Cl)=C(/Cl)S(=O)Cc2ccccc2)cn1 (stereo not drawn) | inactive | –
66 | O=C(/C=C/c1ccnc2ccccc12)c1cccs1 | inactive | –
67 | COCCN1C(=O)/C(=C/c2ccc(N3CCCC3)cc2C)SC1=S | inactive | –
68 | Cc1ccc(S(=O)(=O)Cc2cc(F)c([N+](=O)[O-])cc2[N+](=O)[O-])cc1 | inactive | –
69 | Oc1cc(-c2ccc(N3CCCCC3)nc2)cc2cccnc12 | inactive | –
70 | C[C@@]12C(=O)OC(=O)[C@]1(C)C1CCC2O1 | inactive | –
71 | Cc1[nH][nH]c(=O)c1C(c1ccc(-c2ccc(Cl)cc2)o1)c1c(C)[nH][nH]c1=O | inactive | –
72 | O=C(O)c1cc[c]([Hg][Cl])cc1 | inactive | –

Row | Compound | GFP fluorescence, higher = induction | EC50 [µM]
73 | c1ccc(-c2csc(Nc3cccnc3)n2)nc1 | inactive | –
74 | CC(C)C(=O)NC(c1cccs1)c1cc([N+](=O)[O-])c2cccnc2c1O (stereo not drawn) | inactive | –
75 | O=C(/C=C/c1ccccc1Cl)c1ccccc(=O)c1O | inactive | –
76 | Nc1nc(N)c2nc(CNc3ccc(C(=O)NC(CCC(=O)O)C(=O)O)cc3)cnc2n1 (stereo not drawn) | inactive | –
77 | CC(=O)n1cc(C(C[N+](=O)[O-])SCCN)c2ccccc21 (stereo not drawn) | inactive | –
78 | CC(=O)OC[C@]12CC[C@H]3[C@@](C)(CC[C@H]4C(C)(C)CCC[C@]34C)[C@@H]1C[C@H](C1=CC(=O)O[C@@H]1OC(C)=O)O2 | inactive | –
79 | COc1ccc(N=Cc2nc(-c3ccccc3)oc2OC(=O)c2ccccc2)cc1 | inactive | –
80 | COC(=O)CCC(=O)OC1(C)C(=O)C2=COC(c3ccc(OC)cc3)=CC2=C(Br)C1=O (stereo not drawn) | inactive | –
81 | COc1ccc(C=C2C(=O)c3ccccc3C2=O)cc1O | inactive | –
82 | CCCCNc1c2c3c(cccc3n(C)c1=O)C(=O)c1ccccc1-2 | inactive | –
83 | O=C(c1ccc(C(=O)N2CCCc3ccccc32)s1)N1CCCc2ccccc21 | inactive | –
84 | CS(=O)(=O)c1sc(C#N)c2c1C(=O)CC(c1ccccc1)C2 (stereo not drawn) | inactive | –
85 | O=C(NOC(=O)c1ccccc1)c1ccccc1 | inactive | –
86 | O=[N+]([O-])c1ccc(N=Nc2c(Cl)cc(O)cc2Cl)cc1 | inactive | –
87 | O=C1NC(=O)N(Cc2ccco2)C(=O)/C1=C/c1ccc(-c2cccc([N+](=O)[O-])c2)o1 | inactive | –
88 | O=c1c2cc(Br)ccc2nc(-c2ccc([N+](=O)[O-])cc2)n1O | inactive | –
89 | O=C(COc1ccc(F)cc1Cl)Nc1nc(-c2ccccn2)cs1 | inactive | –
90 | CNC(CC(=O)c1ccc([N+](=O)[O-])cc1)C(Cl)(Cl)Cl (stereo not drawn) | inactive | –
91 | COc1cccc2c(=O)c(C(=O)NCc3cccs3)c[nH]c12 | inactive | –
92 | Cc1cccc(/C=C/C(=O)c2ccc([N+](=O)[O-])o2)c1 | inactive | –
93 | COc1ccc(/C=C/C(=O)C2C(=O)C=C(C)OC2=O)cc1O (stereo not drawn) | inactive | –
